Data from patent US5391540A, “Substituted pyridine compounds” (Rohm and Haas Company, priority 1993, dated 1995).

Assays:
Experiment in all cases: Pre-emergent herbicidal activity (Table A)
Type in all cases: in vivo
Pennsylvania Smartweed = settings: pre-emergence, Pesw, 11.2 kg/ha, 10-14 days, read-out: herbicidal rating (% inhibition)
Summary of the method: (§1)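 Seeds or perennial propagules set on compacted topsoil, then covered with soil mixed with a known amount of test compound applied in acetone or water carrier. Ratings assigned on a scale based on percent inhibition of each species.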

Cocklebur = settings: Xanthium strumarium, pre-emergence, Cobu, 11.2 kg/ha, 10-14 days, read-out: herbicidal rating (% inhibition)
Summary of the method: as §1

Downy Brome = settings: Bromus tectorum, pre-emergence, Dobr, 11.2 kg/ha, 10-14 days, read-out: herbicidal rating (% inhibition)
Summary of the method: as §1

Barnyardgrass = settings: Echinochloa crus-galli, pre-emergence, Bygr, 11.2 kg/ha, 10-14 days, read-out: herbicidal rating (% inhibition)
Summary of the method: as §1

Rhizome Johnsongrass = settings: Sorghum halepense, pre-emergence, Rhjg, 11.2 kg/ha, 10-14 days, read-out: herbicidal rating (% inhibition)
Summary of the method: as §1

Velvetleaf = settings: Abutilon theophrasti, pre-emergence, Vele, 11.2 kg/ha, 10-14 days, read-out: herbicidal rating (% inhibition)
Summary of the method: as §1

Yellow Nutsedge = settings: Cyperus, pre-emergence, Yens, 11.2 kg/ha, 10-14 days, read-out: herbicidal rating (% inhibition)
Summary of the method: as §1

Common Lambsquarters = settings: Chenopodium album, pre-emergence, Colq, 11.2 kg/ha, 10-14 days, read-out: herbicidal rating (% inhibition)
Summary of the method: as §1

Morningglory = settings: Ipomoea, pre-emergence, Mogl, 11.2 kg/ha, 10-14 days, read-out: herbicidal rating (% inhibition)
Summary of the method: as §1

Canada thistle = settings: Cirsium arvense, pre-emergence, Cath, 11.2 kg/ha, 10-14 days, read-out: herbicidal rating (% inhibition)
Summary of the method: as §1

Quackgrass = settings: pre-emergence, Rhqg, 11.2 kg/ha, 10-14 days, read-out: herbicidal rating (% inhibition)
Summary of the method: as §1

| Compound | inhibition at 11200 g/ha (Pennsylvania Smartweed) [%] | inhibition at 11200 g/ha (Cocklebur) [%] | inhibition at 11200 g/ha (Downy Brome) [%] | inhibition at 11200 g/ha (Barnyardgrass) [%] | inhibition at 11200 g/ha (Rhizome Johnsongrass) [%] | inhibition at 11200 g/ha (Velvetleaf) [%] | inhibition at 11200 g/ha (Yellow Nutsedge) [%] | inhibition at 11200 g/ha (Common Lambsquarters) [%] | inhibition at 11200 g/ha (Morningglory) [%] | inhibition at 11200 g/ha (Canada thistle) [%] | inhibition at 11200 g/ha (Quackgrass) [%] |
| --- | --- | --- | --- | --- | --- | --- | --- | --- | --- | --- | --- |
| CCOC(=O)c1c(OCC)nc(C(F)(F)F)c(C(=O)OCC)c1CC(C)C [Compound 39, 3,5-pyridinedicarboxylic acid, 2-ethoxy-4-(2-methylpropyl)-6-(trifluoromethyl)-, diethyl ester] | 75 to 100 | 0 to 24 | 75 to 100 | 75 to 100 | 0 to 24 | 50 to 74 | 0 to 24 | 75 to 100 | 25 to 49 | 0 to 24 | 0 to 24 |
| COC(=O)c1c(OC)nc(C(F)(F)F)c(C2=NCCO2)c1CC(C)C [Compound 43, 3-pyridinecarboxylic acid, 5-(4,5-dihydro-2-oxazolyl)-2-methoxy-4-(2-methylpropyl)-6-(trifluoromethyl)-, methyl ester] | 75 to 100 | 50 to 74 | 75 to 100 | 75 to 100 | 75 to 100 | 75 to 100 | 75 to 100 | 75 to 100 | 75 to 100 | 75 to 100 | 75 to 100 |
| COC(=O)c1c(OC)nc(C(F)(F)F)c(N=CN(C)C)c1CC(C)C [Compound 62, 3-pyridinecarboxylic acid, 5-[[(dimethylamino)methylene]amino]-2-methoxy-4-(2-methylpropyl)-6-(trifluoromethyl)-, methyl ester] | 75 to 100 | 25 to 49 | 75 to 100 | 75 to 100 | 50 to 74 | 75 to 100 | 25 to 49 | 75 to 100 | 75 to 100 | 75 to 100 | 75 to 100 |
| COC(=O)c1c(OC)nc(C(F)(F)F)c(C(=O)OC)c1CC(C)C [Compound 2, 3,5-pyridinedicarboxylic acid, 2-methoxy-4-(2-methylpropyl)-6-(trifluoromethyl)-, dimethyl ester] | 75 to 100 | 75 to 100 | 75 to 100 | 75 to 100 | 75 to 100 | 75 to 100 | 75 to 100 | 75 to 100 | 75 to 100 | 75 to 100 | 75 to 100 |
| COC=Nc1c(OC)nc(C(F)(F)F)c(C(=O)OC)c1CC(C)C [Compound 56, 3-pyridinecarboxylic acid, 6-methoxy-5-[(methoxymethylene)amino]-4-(2-methylpropyl)-2-(trifluoromethyl)-, methyl ester] | 0 to 24 | 0 to 24 | 75 to 100 | 75 to 100 | 0 to 24 | 0 to 24 | 0 to 24 | 75 to 100 | 0 to 24 | 0 to 24 | 0 to 24 |
| CCCCOC(=O)c1c(C(F)(F)F)nc(OC)c(C(=O)OC)c1CC(C)C [Compound 16, 3,5-pyridinedicarboxylic acid, 2-methoxy-4-(2-methylpropyl)-6-(trifluoromethyl)-, 5 butyl 3-methyl ester] | 75 to 100 | 0 to 24 | 75 to 100 | 75 to 100 | 0 to 24 | 75 to 100 | 0 to 24 | 75 to 100 | 75 to 100 | 50 to 74 | 75 to 100 |
| COC(=O)c1c(OC)nc(C(F)(F)F)c(C2=NCC(C)S2)c1CC(C)C (stereo not shown) [Compound 64, 3-pyridinecarboxylic acid, 5-(4,5-dihydro-5-methy1-2-thiazolyl)-2-methoxy-4-(2-methylpropyl)-6-(trifluoromethyl)-, methyl ester] | 75 to 100 | 75 to 100 | 75 to 100 | 75 to 100 | 0 to 24 | 75 to 100 | 0 to 24 | 75 to 100 | 75 to 100 | 75 to 100 | 50 to 74 |
| CCOc1nc(C(F)(F)F)c(C(=O)n2cccn2)c(CC(C)C)c1C(=O)OC [Compound 49, 3-pyridinecarboxylic acid, 2-ethoxy-4-(2-methylpropyl)-5-(1H-pyrazo1-1-ylcarbonyl)-6-(trifluoromethyl)-, methyl ester] | 75 to 100 | 25 to 49 | 75 to 100 | 75 to 100 | 50 to 74 | 75 to 100 | 75 to 100 | 75 to 100 | 75 to 100 | 75 to 100 | 75 to 100 |
| CNC(=O)c1c(C(F)(F)F)nc(OC)c(C(=O)OC)c1CC(C)C [Compound 37, 3-pyridinecarboxylic acid, 2-methoxy-5-[(methylamino)carbonyl]-4-(2-methylpropyl)-6-(trifluoromethyl)-, methyl ester] | 0 to 24 | 0 to 24 | 0 to 24 | 0 to 24 | 0 to 24 | 0 to 24 | 0 to 24 | 75 to 100 | 0 to 24 | 0 to 24 | 0 to 24 |
| C#CCOc1nc(C(F)(F)F)c(C(=O)OC)c(CC(C)C)c1C(=O)OC [Compound 83, 3,5-pyridinedicarboxylic acid, 4-(2-methylpropyl)-2-(2-propynyloxy)-6-(trifluoromethyl)-, dimethyl ester] | 75 to 100 | 0 to 24 | 75 to 100 | 75 to 100 | 25 to 49 | 75 to 100 | 0 to 24 | 75 to 100 | 75 to 100 | 25 to 49 | 75 to 100 |
| CCOC(=O)c1c(OCC)nc(C(F)(F)F)c(C(=O)OC)c1CC(C)C [Compound 3, 3,5-pyridinedicarboxylic acid, 2-ethoxy-4-(2-methylpropyl)-6-(trifluoromethyl)-, 3-ethyl 5-methyl ester, hydrate (1:0.4)] | 50 to 74 | 0 to 24 | 75 to 100 | 75 to 100 | 0 to 24 | 0 to 24 | 25 to 49 | 75 to 100 | 50 to 74 | 75 to 100 | 75 to 100 |
| COC(=O)c1c(OC)nc(C(F)(F)F)c(C(=O)n2ccc(C)n2)c1CC(C)C [Compound 51, 3-pyridinecarboxylic acid, 2-methoxy-4-(2-methylpropyl)-5-[(3-methy1-1H-pyrazo1-1-yl)carbonyl]-6-(trifluoromethyl)-, methyl ester] | 75 to 100 | 25 to 49 | 75 to 100 | 75 to 100 | 75 to 100 | 75 to 100 | 25 to 49 | 75 to 100 | 75 to 100 | 75 to 100 | 75 to 100 |
| COC(=O)c1c(OC)nc(C(F)(F)F)c(C(=O)N2CCCC2)c1CC(C)C [Compound 66, 3-pyridinecarboxylic acid, 2-methoxy-4-(2-methylpropyl)-5-(1-pyrrolidinylcarbonyl)-6-(trifluoromethyl)-, methyl ester] | 25 to 49 | 0 to 24 | 75 to 100 | 75 to 100 | 0 to 24 | 25 to 49 | 0 to 24 | 75 to 100 | 50 to 74 | 75 to 100 | 75 to 100 |
| COC(=O)c1c(OC)nc(C(F)(F)F)c(C(=O)OC)c1C1CCC1 [Compound 48, 3,5-pyridinedicarboxylic acid, 4-cyclobuty1-2-methoxy-6-(trifluoromethyl)-, dimethyl ester] | 75 to 100 | 75 to 100 | 75 to 100 | 75 to 100 | 75 to 100 | 75 to 100 | 75 to 100 | 75 to 100 | 75 to 100 | 75 to 100 | 75 to 100 |
